Experimental data published in US20260200849A1, “CATIONIC LIPIDS AND PREPARATION METHOD THEREOF” (RiboX Therapeutics HK Limited, priority 2024, published 2026).

Tests used:
[1] = tested on: Hep G2 cells; experiment: In vitro toxicity: Hep G2 cell viability by CellTiter-Glo; assay type: cell-based; settings: Formulation No. 001, RNA No. 331, 1 μg/mL RNA-LNPs, 72 hours post transfection, cell only = 100%
Experimental: 2E5 Hep G2 cells were transfected with 1 μg/mL RNA-LNPs. At 72 hours post transfection, cell viability (2-well repeat) was determined with the CellTiter-Glo® reagent kit, according to the kit protocol, measured by a luminometer. Cell only as control (100%).
The cell viability was calculated according to the following formula: […]

[2] = tested on: Hep G2 cells; experiment: In vitro expression: luciferase activity in Hep G2 cells transfected with RNA-LNPs; assay type: cell-based; settings: Formulation No. 001, RNA No. 331 (firefly-luciferase), 100 ng/mL RNA-LNPs, 72 hours post transfection
Experimental: 2E5 Hep G2 cells were transfected with 100 ng/mL of RNA-LNPs encoding for firefly-luciferase. At 72 hours post transfection, the cells were washed and lysed. The luciferase expression (2-well repeat) was determined in the cell lysates with the luciferase assay reagent kit (Promega), according to the kit protocol, luciferase activity was measured by a luminometer.

[3] = tested on: C57BL/6J mice; experiment: In vivo expression by IV, 1.0 mg/kg luciferase RNA-LNPs, whole-body and organ IVIS luminescence; settings: Formulation No. 001, RNA No. 331; male C57BL/6J mice, 1.0 mg*kg−1 intravenous, 24-hours post injection
Experimental: 6-8 week old, male C57BL/6J mice (N=3) were injected with 1.0 mg*kg−1 of RNA-LNPs encoding for firefly-luciferase by intravenous injection. At 24-hours post injection, animals were intraperitoneally injected with 15 mg/ml of Luciferin substrate and whole-body/liver/spleen/kidney/small intestine/large intestine luminescence were determined by a bioluminescent in vivo imaging system (IVIS).
6-8 week old, male C57BL/6J mice (N=3) were injected with 1.0 mg*kg−1 of RNA-LNPs encoding for firefly-luciferase by intravenous injection. At 24-hours post injection, animals were intraperitoneally injected with 15 mg/nil of Luciferin substrate and whole-body/liver/spleen/kidney/small intestine/large intestine luminescence were determined by a bioluminescent in vivo imaging system (IVIS).

[4] = RNA encapsulation efficacy (EE %) by Quant-IT Ribogreen kit; assay type: physicochemical; settings: LNP, Formulation No. 001, RNA No. 331
Experimental: (§1) The LNP size and polydispersity index (PDI), determined by dynamic light scattering (DLS), and zeta potential were measured by a Zetasizer machine (Malvern). RNA concentration and encapsulation efficacy (EE %) were analyzed by the Quant-IT Ribogreen kit by calculating the percentage encapsulation at 100%—(RNA-LNPs/RNA-LNPs with Triton X-100).

[5] = tested on: Balb/c mice; experiment: In vivo expression by IV, 0.05 mg/kg luciferase RNA-LNPs, IVIS luminescence; settings: Formulation No. 001, RNA No. 331; female Balb/c mice, 0.05 mg*kg−1 intravenous, 24-hours post injection
Experimental: 7-8 week old, female Balb/c mice (N=3) were injected with 0.05 mg*kg−1 of RNA-LNPs encoding for firefly-luciferase by intravenous injection. At 24- and 72-hours post injection, animals were intraperitoneally injected with 15 mg/mi of Luciferin substrate and whole-body luminescence was determined by a bioluminescent in vivo imaging system (IVIS).
7-8 week old, female Balb/c mice (N=3) were injected with 0.05 mg*kg−1 of RNA-LNPs encoding for firefly-luciferase by intravenous injection. At 24-hours post injection, animals were intraperitoneally injected with 15 mg/ml of Luciferin substrate and whole-body/liver/spleen luminescence was determined by a bioluminescent in vivo imaging system (IVIS).

[6] = tested on: IL-6; experiment: In vivo tolerability by IV: serum IL-6 by Luminex; set-up: species or system C57BL/6J mice; settings: Formulation No. 001, RNA No. 331, male C57BL/6J mice, 1.0 mg*kg/1 intravenous; for IL-6 at 2 h: 2 hours post injection; for IL-6 at 24 h: 24 hours post injection
Experimental: (§2) 6-8 week old, male C57BL/6J mice (N=3) were injected with 1.0 mg*kg/1 of RNA-LNPs encoding for firefly-luciferase by intravenous injection. At 2- and 24-hours post injection, about 40 μL blood was harvested and immediately added to the procoagulant containing tube. Stand for 30 min at room temperature and then centrifuged at 2500 g×10 min to obtain serum. About 15 μL serum samples were aliquoted for cytokine (MCP-1 and IL-6) detection by Luminex (ProcartaPlex Mouse 2-plex, Thermo). PBS group as negative control.
(§3) 6-8 week old, male C57BL/6J mice (N=3) were injected with 1.0 mg*kg−1 of RNA-LNPs encoding for firefly-luciferase by intravenous injection. At 2- and 24-hours post injection, about 40 μL blood was harvested and immediately added to the procoagulant containing tube. Stand for 30 min at room temperature and then centrifuged at 2500 g×10 min to obtain serum. About 15 μL serum samples were aliquoted for cytokine (MCP-1 and IL-6) detection by Luminex (ProcartaPlex Mouse 2-plex, Thermo). PBS group as negative control.

[7] = LNP size and polydispersity index (PDI) by dynamic light scattering (Zetasizer); assay type: physicochemical; settings: for Size (nm): Formulation No. 001 (Ionizable lipid:DSPC:cholesterol:DMG-PEG2000 = 50:10:38.5:1.5, N/P 6), RNA No. 331; for PDI: Formulation No. 001, RNA No. 331
Experimental: as §1

[8] = tested on: MCP-1; experiment: In vivo tolerability by IV: serum MCP-1 by Luminex; set-up: species or system C57BL/6J mice; settings: Formulation No. 001, RNA No. 331, male C57BL/6J mice, 1.0 mg*kg/1 intravenous; for MCP-1 at 2 h: 2 hours post injection; for MCP-1 at 24 h: 24 hours post injection
Experimental: as §2, §3

Structure (SMILES): CCCCC/C=C\C/C=C\CCCCCCCCOC(=O)NC(COC(=O)NCCN1CCCCCC1)C(=O)OCCCCCCCC(=O)OC(CCCCCCCC)CCCCCCCC (stereo not drawn) [Lipid 858]
- In vitro cell viability (%) (Mean) [1]: 92.44%
- In vitro Expression (Mean) [2]: 2.88E+05
- Kidney (p/s) [3]: 2.31E+07 p/s
- Large intestine (p/s) [3]: 1.58E+08 p/s
- Liver (p/s) [3]: 8.64E+08 p/s
- Small intestine (p/s) [3]: 6.45E+08 p/s
- Spleen (p/s) [3]: 2.33E+08 p/s
- Whole body (p/s) [3]: 1.92E+09 p/s
- EE (%) [4]: 91.60%
- Liver (p/s) (Mean) [5]: 3.71E+08 p/s
- Spleen (p/s) (Mean) [5]: 6.61E+07 p/s
- Whole body (p/s) (Mean) [5]: 8.74E+08 p/s
- IL-6 at 2 h [6]: 23 pg/mL
- IL-6 at 24 h [6]: 3.13 pg/mL
- Size (nm) [7]: 63.50 nm
- PDI [7]: 0.04
- MCP-1 at 2 h [8]: 1360 pg/mL
- MCP-1 at 24 h [8]: 111 pg/mL

Structure (SMILES): CCCCCCCCCCCOC(=O)NC(COC(=O)NCCN1CCCCC1)C(=O)OCCCCCCCC(=O)OC(CCCCCCCC)CCCCCCCC (stereo not drawn) [Lipid 914]
- In vitro cell viability (%) (Mean) [1]: 79.98%
- In vitro Expression (Mean) [2]: 1.56E+06
- Kidney (p/s) [3]: 1.72E+07 p/s
- Large intestine (p/s) [3]: 4.60E+07 p/s
- Liver (p/s) [3]: 1.75E+09 p/s
- Small intestine (p/s) [3]: 4.42E+08 p/s
- Spleen (p/s) [3]: 2.11E+08 p/s
- Whole body (p/s) [3]: 2.46E+09 p/s
- EE (%) [4]: 87.49%
- Liver (p/s) (Mean) [5]: 3.77E+08 p/s
- Spleen (p/s) (Mean) [5]: 5.60E+07 p/s
- Whole body (p/s) (Mean) [5]: 1.19E+09 p/s
- IL-6 at 2 h [6]: 4.6 pg/mL
- IL-6 at 24 h [6]: 2.77 pg/mL
- Size (nm) [7]: 70.33 nm
- PDI [7]: 0.04
- MCP-1 at 2 h [8]: 452 pg/mL
- MCP-1 at 24 h [8]: 148 pg/mL

Structure (SMILES): CCCCCCCCCCCOC(=O)CCCCCOC(=O)C(COC(=O)NCCN1CCCCC1)NC(=O)OCCCCCCCCOC(=O)C(CCCCCC)CCCCCCCC (stereo not drawn) [Lipid 923]
- In vitro cell viability (%) (Mean) [1]: 88.59%
- In vitro Expression (Mean) [2]: 7.34E+05
- Kidney (p/s) [3]: 5.13E+06 p/s
- Large intestine (p/s) [3]: 5.94E+07 p/s
- Liver (p/s) [3]: 1.44E+09 p/s
- Small intestine (p/s) [3]: 3.01E+08 p/s
- Spleen (p/s) [3]: 3.85E+08 p/s
- Whole body (p/s) [3]: 2.42E+09 p/s
- EE (%) [4]: 88.91%
- Liver (p/s) (Mean) [5]: 4.09E+08 p/s
- Spleen (p/s) (Mean) [5]: 5.03E+07 p/s
- Whole body (p/s) (Mean) [5]: 1.57E+09 p/s
- IL-6 at 2 h [6]: 11.9 pg/mL
- IL-6 at 24 h [6]: 2.37 pg/mL
- Size (nm) [7]: 81.29 nm
- PDI [7]: 0.03
- MCP-1 at 2 h [8]: 639 pg/mL
- MCP-1 at 24 h [8]: 75 pg/mL

Structure (SMILES): CCCCC/C=C\CCOC(=O)CCCCCOC(=O)C(COC(=O)NCCN1CCCCC1)NC(=O)OCCCCCCCCOC(=O)C(CCCCCC)CCCCCCCC (stereo not drawn) [Lipid 954]
- In vitro cell viability (%) (Mean) [1]: 93.41%
- In vitro Expression (Mean) [2]: 4.78E+05
- Kidney (p/s) [3]: 1.53E+08 p/s
- Large intestine (p/s) [3]: 9.03E+08 p/s
- Liver (p/s) [3]: 3.01E+09 p/s
- Small intestine (p/s) [3]: 1.69E+09 p/s
- Spleen (p/s) [3]: 7.74E+08 p/s
- Whole body (p/s) [3]: 1.08E+10 p/s
- EE (%) [4]: 88.46%
- Liver (p/s) (Mean) [5]: 8.01E+08 p/s
- Spleen (p/s) (Mean) [5]: 9.82E+07 p/s
- Whole body (p/s) (Mean) [5]: 2.71E+09 p/s
- IL-6 at 2 h [6]: 4220 pg/mL
- IL-6 at 24 h [6]: 8.87 pg/mL
- Size (nm) [7]: 83.18 nm
- PDI [7]: 0.01
- MCP-1 at 2 h [8]: 4780 pg/mL
- MCP-1 at 24 h [8]: 789 pg/mL

Structure (SMILES): CCCCCCCC/C=C\CCCCCCCC(=O)NC(COC(=O)NCCN1CCCCC1)C(=O)OCCCCCC(=O)OCC(CCCCCCCC)CCCCCCCCCC (stereo not drawn) [Lipid 792]
- In vitro cell viability (%) (Mean) [1]: 81.74%
- In vitro Expression (Mean) [2]: 8.10E+05
- Kidney (p/s) [3]: 3.20E+07 p/s
- Large intestine (p/s) [3]: 8.04E+07 p/s
- Liver (p/s) [3]: 2.74E+09 p/s
- Small intestine (p/s) [3]: 5.01E+08 p/s
- Spleen (p/s) [3]: 3.20E+08 p/s
- Whole body (p/s) [3]: 2.76E+09 p/s
- EE (%) [4]: 92.11%
- Liver (p/s) (Mean) [5]: 2.90E+08 p/s
- Spleen (p/s) (Mean) [5]: 1.01E+08 p/s
- Whole body (p/s) (Mean) [5]: 2.18E+09 p/s
- IL-6 at 2 h [6]: 25.9 pg/mL
- IL-6 at 24 h [6]: 6.86 pg/mL
- Size (nm) [7]: 64.18 nm
- PDI [7]: 0.02
- MCP-1 at 2 h [8]: 1620 pg/mL
- MCP-1 at 24 h [8]: 216 pg/mL

Structure (SMILES): CCCCCCCCC(CCCCCC)C(=O)OCCCCCCCCOC(=O)NC(COC(=O)NCCN(C)C)C(=O)OCCCCCCCCOC(=O)C(CCCCCC)CCCCCCCC (stereo not drawn) [Lipid 883]
- In vitro cell viability (%) (Mean) [1]: 93.23%
- In vitro Expression (Mean) [2]: 2.82E+05
- Kidney (p/s) [3]: 6.37E+06 p/s
- Large intestine (p/s) [3]: 3.50E+07 p/s
- Liver (p/s) [3]: 3.22E+09 p/s
- Small intestine (p/s) [3]: 1.46E+08 p/s
- Spleen (p/s) [3]: 2.19E+08 p/s
- Whole body (p/s) [3]: 1.65E+09 p/s
- EE (%) [4]: 96.96%
- Liver (p/s) (Mean) [5]: 1.59E+08 p/s
- Spleen (p/s) (Mean) [5]: 2.09E+07 p/s
- Whole body (p/s) (Mean) [5]: 1.60E+09 p/s
- IL-6 at 2 h [6]: 16.4 pg/mL
- IL-6 at 24 h [6]: 5.01 pg/mL
- Size (nm) [7]: 69.88 nm
- PDI [7]: 0.05
- MCP-1 at 2 h [8]: 1860 pg/mL
- MCP-1 at 24 h [8]: 220 pg/mL
